From EP3723745B1, “PHENOXY ACIDS FOR THE TREATMENT OF NEUROMUSCULAR DISORDERS” (NMD Pharma A/S, priority 2017, dated 2019)

These molecules were tested against T1, human CIC-1 channels (Homo sapiens, UniProt P35523) (assay: Automated patch-clamp on human CIC-1 expressed in CHO cells). Settings: difference in half activation voltage, compound added intracellularly vs control cell patches; positive shift = CIC-1 inhibition.
T1 construct: host or cells: CHO cells constitutively expressing human ClC-1
Assay type: cell-based
Description: The investigatory goal of these experiments was to evaluate how compounds affect the open probability and current amplitude of human CIC-1 channels expressed in CHO cells. Experiments were performed using an automated patch clamp system that allowed high throughput testing of whole cell patches together with both intracellular and extracellular addition of compound.
Automated whole cell patch clamp experiments were performed with the Qpatch 16 system (Sophion Bioscience, Ballerup, Denmark) at room temperature. Data acquisition and analysis were performed in the Qassay software (ver. 5.6, Odense).
To evoke CIC-1 currents in whole cell patches, the membrane potential was initially stepped from a holding potential of -30 mV to +60 mV for 100 ms and then to various test voltages (sweeps) ranging from +120 mV to -140 mV in steps of 20 mV for 300 ms. To obtain tail currents, the membrane potential was stepped to -100 mV after each test voltage for 300 ms and then relaxed to -30 mV for 2 sec between sweeps (Figure 3). I/V relationships for whole cell instant and steady state current amplitudes were obtained by plotting average current densities at the beginning and at the end of the 300 ms step against the membrane potential (Figure 4).
In order to determine the relative overall open probability (P0), the instantaneous tail currents were normalized to the maximal tail current obtained following the most positive voltage step and plotted against the test voltage. Plots of normalized tail currents from each whole cell patch were then fitted to a Boltzmann function allowing determination of half activation voltages (V1/2, Figure 5).
For automated patch clamp experiments extracellular solutions contained: 2 mM CaCl2, 1 mM MgCl2, 10 mM HEPES, 4 mM KCI, 145 mM NaCl, 10 mM Glucose, pH adjusted to 7.4 with NaOH (2 M). Osmolality adjusted to -320 using sucrose.
Intracellular solutions contained: 80 mM CsF, 60 mM CsCI, 5/1 mM KOH/EGTA, 10 mM HEPES, 10 mM NaCl, pH adjusted to 7.2 with NaOH (2 M). Osmolality adjusted to -320 mOsm using sucrose.
Cells used in patch clamp experiments were Chinese hamster ovary cells (CHO) constitutively expressing human CIC-1 channels. The amino acid sequence encoded by the cDNA used to create this cell line was identical to the translated sequence for GenBank accession number NM_000083.2. Cells were produced by Charles River (Catalogue CT6175, Cleveland OH, USA) in a cryopreserved format. Experiments were performed on the cells directly after thawing (3 × 10^6 cells used in each experiment).
To evaluate the compound effect on CIC-1, when applied directly to the intracellular side of the cell membrane, the half activation voltage, V1/2, was determined from whole cell patches with compound added to the intracellular solution and then compared to V1/2 determined from control cell patches with only vehicle added to the intracellular solution. Additionally, the effect of extracellular added compound was evaluated by determine V1/2 and steady state current amplitudes before and after exchanging the extracellular solution to contain compound.
The difference in half activation voltage of CIC-1 channels, ΔV1/2, was determined as the difference between the cell patches treated intracellularly with compound and control cells patches and is reported in Table 4 below. A positive shift in ΔV1/2 is reflecting CIC-1 channel inhibition by the tested compound. P-values of <0.05 is considered significant. […]

T1 sequence (P35523 whole entry): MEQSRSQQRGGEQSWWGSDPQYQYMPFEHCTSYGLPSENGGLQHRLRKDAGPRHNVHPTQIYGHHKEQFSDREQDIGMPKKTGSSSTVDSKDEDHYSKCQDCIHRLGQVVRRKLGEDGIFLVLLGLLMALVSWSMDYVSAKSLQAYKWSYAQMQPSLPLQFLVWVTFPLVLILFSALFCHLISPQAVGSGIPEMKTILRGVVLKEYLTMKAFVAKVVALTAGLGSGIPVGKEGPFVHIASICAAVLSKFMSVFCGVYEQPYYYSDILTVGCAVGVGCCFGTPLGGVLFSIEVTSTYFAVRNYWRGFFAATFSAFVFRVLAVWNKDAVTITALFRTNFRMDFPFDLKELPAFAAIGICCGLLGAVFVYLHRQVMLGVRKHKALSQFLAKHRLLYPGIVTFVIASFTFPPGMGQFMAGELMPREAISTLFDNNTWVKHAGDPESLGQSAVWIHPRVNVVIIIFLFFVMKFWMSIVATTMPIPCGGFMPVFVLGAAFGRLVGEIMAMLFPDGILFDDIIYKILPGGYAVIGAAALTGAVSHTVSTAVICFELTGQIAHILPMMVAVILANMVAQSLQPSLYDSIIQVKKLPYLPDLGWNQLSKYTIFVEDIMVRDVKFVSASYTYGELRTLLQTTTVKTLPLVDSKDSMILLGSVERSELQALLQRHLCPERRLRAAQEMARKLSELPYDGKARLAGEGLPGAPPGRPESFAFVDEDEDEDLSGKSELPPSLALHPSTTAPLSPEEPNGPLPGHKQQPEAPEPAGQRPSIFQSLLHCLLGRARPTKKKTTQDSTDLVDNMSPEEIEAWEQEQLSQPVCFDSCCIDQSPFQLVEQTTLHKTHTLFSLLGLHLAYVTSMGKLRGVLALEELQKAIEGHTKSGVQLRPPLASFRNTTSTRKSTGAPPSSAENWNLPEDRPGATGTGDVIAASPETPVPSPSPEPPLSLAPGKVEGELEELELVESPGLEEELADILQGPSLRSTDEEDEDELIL

SMILES | ΔV1/2 [mV]
[2H]c1cc(Br)cc([2H])c1O[C@@H](C)C(=O)O [Compound A-6, (2S)-2-[4-bromo(2,6-^2H2)phenoxy]propanoic acid] | 13.0
C[C@H](Oc1ccc(Br)cc1I)C(=O)O [Compound A-8, (2S)-2-(4-bromo-2-iodophenoxy)propanoic acid] | 9.4
O=C(O)[C@H](CF)Oc1ccc(Br)cc1 [Compound A-26, (2R)-2-(4-bromophenoxy)-3-fluoropropanoic acid] | 19.7
[2H]CC([2H])[C@H](Oc1ccc(Br)cc1)C(=O)O (stereo partly drawn) [Compound A-76, (2S)-2-(4-bromophenoxy)(3,4-^2H2)butanoic acid] | 26.2
[2H][C@@](CF)(Oc1ccc(Br)cc1)C(=O)O [Compound A-82, (2R)-2-(4-bromophenoxy)-3-fluoro(2-^2H)propanoic acid] | 19.0

More lines, now with the values ahead:

ΔV1/2 [mV] | SMILES
15.2 | O=C(O)[C@@H](Oc1ccc(Br)cc1F)C(F)F [Compound A-9, (2R)-2-(4-bromo-2-fluorophenoxy)-3,3-difluoropropanoic acid]
17.4 | C[C@H](Oc1ccc(Cl)cc1F)C(=O)O [Compound A-38, (2S)-2-(4-chloro-2-fluorophenoxy)propanoi c acid]
5.19 | C[C@H](Oc1ccc(Br)cc1Br)C(=O)O [Compound A-40, (2S)-2-(2,4-dibromophenoxy)propan oic acid]
28.2 | CC[C@H](Oc1ccc(Br)cc1F)C(=O)O [Compound A-58, (2S)-2-(4-bromo-2-fluorophenoxy)butanoic acid]
27.4 | C#CC[C@H](Oc1ccc(Br)cc1Br)C(=O)O [Compound A-66, (2S)-2-(2,4-dibromophenoxy)pent-4-ynoic acid]
37.8 | C#CC[C@H](Oc1ccc(Br)cc1Cl)C(=O)O [Compound A-67, (2S)-2-(4-bromo-2-chlorophenoxy)pent-4-ynoic acid]
32.6 | C#CC[C@H](Oc1ccc(Br)cc1F)C(=O)O [Compound A-69, (2S)-2-(4-bromo-2-fluorophenoxy)pent-4-ynoic acid]

Each molecule was assayed against T2, CIC-1 channels (Rattus norvegicus, UniProt P35524) (assay: Electrophysiological measurement of compound inhibition of CIC-1 in rat muscle (Gm, three micro-electrodes technique)). Settings: reduction of Gm in fibres of whole rat soleus muscles, approx. 30°C; n = number of experiments.
T2 construct: from tissue; host or cells: intact soleus muscle of 12-14-week old Wistar rats
T2 sequence (P35524 1-994): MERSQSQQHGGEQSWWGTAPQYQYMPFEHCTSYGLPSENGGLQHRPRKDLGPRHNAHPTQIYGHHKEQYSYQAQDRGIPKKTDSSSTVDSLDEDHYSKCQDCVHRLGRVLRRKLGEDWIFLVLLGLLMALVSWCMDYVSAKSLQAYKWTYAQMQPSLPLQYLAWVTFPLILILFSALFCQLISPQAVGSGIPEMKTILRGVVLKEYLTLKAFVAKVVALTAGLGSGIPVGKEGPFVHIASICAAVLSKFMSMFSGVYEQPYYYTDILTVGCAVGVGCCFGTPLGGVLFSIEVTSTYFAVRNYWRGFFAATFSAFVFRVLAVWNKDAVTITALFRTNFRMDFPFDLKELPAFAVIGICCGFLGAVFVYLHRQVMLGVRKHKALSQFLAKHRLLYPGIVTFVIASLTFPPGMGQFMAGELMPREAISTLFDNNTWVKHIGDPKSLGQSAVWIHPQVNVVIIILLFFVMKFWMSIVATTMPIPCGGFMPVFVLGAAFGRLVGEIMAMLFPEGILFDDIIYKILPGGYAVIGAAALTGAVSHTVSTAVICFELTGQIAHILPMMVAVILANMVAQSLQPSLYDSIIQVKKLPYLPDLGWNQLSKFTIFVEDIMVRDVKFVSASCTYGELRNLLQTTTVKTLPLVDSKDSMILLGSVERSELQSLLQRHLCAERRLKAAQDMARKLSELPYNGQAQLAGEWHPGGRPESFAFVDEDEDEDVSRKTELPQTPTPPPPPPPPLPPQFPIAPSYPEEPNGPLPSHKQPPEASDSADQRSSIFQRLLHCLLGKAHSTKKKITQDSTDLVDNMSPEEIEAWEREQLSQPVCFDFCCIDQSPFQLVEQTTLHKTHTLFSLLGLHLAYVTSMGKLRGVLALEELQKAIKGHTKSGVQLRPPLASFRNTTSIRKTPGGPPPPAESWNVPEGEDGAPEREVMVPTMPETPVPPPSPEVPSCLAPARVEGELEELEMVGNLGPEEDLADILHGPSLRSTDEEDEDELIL
Assay type: cell-based
Source text: Table 2: Inhibition of CIC-1 ion channel using compounds of the invention

SMILES | EC50 [µM]
O=C(O)[C@H](CF)Oc1ccc(Br)cc1 [Compound A-26, (2R)-2-(4-bromophenoxy)-3-fluoropropanoic acid] | 3.8 ± 0.8
COC(=O)[C@H](C)Oc1ccc(Cl)cc1 [Compound A-54, methyl (2S)-2-(4-chlorophenoxy)propano ate] | 6.8 ± 1.3
O=C(O)[C@@H](Oc1ccc(Br)cc1Cl)C1CCC1 [Compound A-71, (2S)-2-(4-bromo-2-chlorophenoxy)-2-cyclobutylacetic acid] | 10.1 ± 0.2
CC(C)[C@H](Oc1ccc(Br)cc1Cl)C(=O)O [Compound A-73, (2S)-2-(4-bromo-2-chlorophenoxy)-3-methylbutanoic acid] | 7.2
CC(C)[C@H](Oc1ccc(Br)cc1I)C(=O)O [Compound A-88, (2S)-2-(4-bromo-2-iodophenoxy)-3-methylbutanoic acid] | 5.9 ± 1.6

The next lines start with the values.

EC50 [µM] | SMILES
> 80 | CC(C)[C@@H](Oc1ccc(Br)cc1F)C(=O)O [Compound A-4, (2R)-2-(4-bromo-2-fluorophenoxy)-3-methylbutanoic acid]
4.2 ± 0.6 | C[C@H](Oc1ccc(Br)cc1Br)C(=O)O [Compound A-40, (2S)-2-(2,4-dibromophenoxy)propan oic acid]
6.3 ± 2.4 | CC[C@H](Oc1ccc(Br)cc1F)C(=O)O [Compound A-58, (2S)-2-(4-bromo-2-fluorophenoxy)butanoic acid]
7.2 | C#CC[C@H](Oc1ccc(Br)cc1Br)C(=O)O [Compound A-66, (2S)-2-(2,4-dibromophenoxy)pent-4-ynoic acid]
9.4 ± 0.6 | C#CC[C@H](Oc1ccc(Br)cc1Cl)C(=O)O [Compound A-67, (2S)-2-(4-bromo-2-chlorophenoxy)pent-4-ynoic acid]
7.6 ± 1.6 | CC[C@H](Oc1ccc(Br)cc1Cl)C(=O)O [Compound A-78, (2S)-2-(4-bromo-2-chlorophenoxy)butanoic acid]
8 | O=C(O)[C@H](CCF)Oc1ccc(Br)cc1I [Compound A-83, (2S)-2-(4-bromo-2-iodophenoxy)-4-fluorobutanoic acid]
8.9 ± 3.2 | O=C(O)[C@@H](Oc1ccc(Br)cc1F)C1CCC1 [Compound A-86, (2S)-2-(4-bromo-2-fluorophenoxy)-2-cyclobutylacetic acid]
2.3 | CC[C@H](Oc1ccc(Br)cc1I)C(=O)O [Compound A-90, (2S)-2-(4-bromo-2-iodophenoxy)butanoic acid]

What follows are molecules tested on soleus muscles (assay: Measurement of force in an in vitro model: isolated rat nerve-muscle preparation with tubocurarine). Settings: 50 µM compound added after 90 min incubation in tubocurarine; 3 muscles (Figure 2).
Description: Recovery of force is quantified as the percentage of the force prior to tubocurarine that is recovered by the compound.
The current invention relates to compounds that inhibit CIC-1 ion channels and increase muscle excitability and thereby improve muscle function in clinical conditions where muscle activation is failing. Such conditions result in loss of contractile function of skeletal muscle, weakness and excessive fatigue. In this series of experiments the compounds were tested for their ability to restore contractile function of isolated rat muscle when the neuromuscular transmission had been compromised akin to neuromuscular disorders.
Experimentally, soleus muscles from 4-5 wk old rats were isolated with the motor nerve remaining attached. The nerve-muscle preparations were mounted in experimental setups that enabled electrical stimulation of the motor nerve. Stimulation of the motor nerve led to activation of the muscle fibres and ensuing force production that was recorded.
After mounting the nerve-muscle preparation in the experimental setup, the contractile function of the muscle was initially assessed under the control conditions (Figure 2A). […] The experimental condition mimics the failing neuromuscular transmission in a range of neuromuscular disorders. After addition of tubocurarine the contractile force declined over the next 90 mins to 10-50 % of the control force. 50 µM of the test compound was then added and the contractile force recovered despite the continued presence of tubocurarine. To quantify the ability of the compound to restore force the percentage of the initial force that was restored was determined after 40 mins of compound exposure (Figure 2B) and the point increase is reported in Table 3. Table 3: Percentage increase of initial force that was restored using compounds of the invention

SMILES | average force (AUC) relative to initial force
O=C(O)[C@H](CF)Oc1ccc(Br)cc1F [Compound A-19, (2R)-2-(4-bromo-2-fluorophenoxy)-3-fluoropropanoic acid] | recovered

Same assay, conditions: Rattus norvegicus, 40 min; percentage of initial force restored after 40 mins with 50 µM test compound; tubocurarine (115 nM) for 90 mins; read-out: Point increase

SMILES | activation at 50 µM [%]
[2H]c1cc(Br)cc([2H])c1O[C@@H](C)C(=O)O [Compound A-6, (2S)-2-[4-bromo(2,6-^2H2)phenoxy]propanoic acid] | 44
O=C(O)[C@H](CF)Oc1ccc(Br)cc1 [Compound A-26, (2R)-2-(4-bromophenoxy)-3-fluoropropanoic acid] | 39
C[C@@H](Oc1ccc(Br)cc1F)C(=O)O [Compound A-28, (2R)-2-(4-bromo-2-fluorophenoxy)propanoi c acid] | -8
C[C@H](Oc1ccc(Br)cc1Br)C(=O)O [Compound A-40, (2S)-2-(2,4-dibromophenoxy)propan oic acid] | 20
CC[C@H](Oc1ccc(Br)cc1F)C(=O)O [Compound A-58, (2S)-2-(4-bromo-2-fluorophenoxy)butanoic acid] | 44
C#CC[C@H](Oc1ccc(Br)cc1Br)C(=O)O [Compound A-66, (2S)-2-(2,4-dibromophenoxy)pent-4-ynoic acid] | 51
C#CC[C@H](Oc1ccc(Br)cc1Cl)C(=O)O [Compound A-67, (2S)-2-(4-bromo-2-chlorophenoxy)pent-4-ynoic acid] | 40
O=C(O)[C@@H](Oc1ccc(Br)cc1Cl)C1CCC1 [Compound A-71, (2S)-2-(4-bromo-2-chlorophenoxy)-2-cyclobutylacetic acid] | 49
CC(C)[C@H](Oc1ccc(Br)cc1Cl)C(=O)O [Compound A-73, (2S)-2-(4-bromo-2-chlorophenoxy)-3-methylbutanoic acid] | 51
[2H]CC([2H])[C@H](Oc1ccc(Br)cc1)C(=O)O (stereo partly drawn) [Compound A-76, (2S)-2-(4-bromophenoxy)(3,4-^2H2)butanoic acid] | 62
CC[C@H](Oc1ccc(Br)cc1Cl)C(=O)O [Compound A-78, (2S)-2-(4-bromo-2-chlorophenoxy)butanoic acid] | 38
[2H][C@@](CF)(Oc1ccc(Br)cc1)C(=O)O [Compound A-82, (2R)-2-(4-bromophenoxy)-3-fluoro(2-^2H)propanoic acid] | 48
O=C(O)[C@H](CCF)Oc1ccc(Br)cc1I [Compound A-83, (2S)-2-(4-bromo-2-iodophenoxy)-4-fluorobutanoic acid] | 35
O=C(O)[C@@H](Oc1ccc(Br)cc1F)C1CCC1 [Compound A-86, (2S)-2-(4-bromo-2-fluorophenoxy)-2-cyclobutylacetic acid] | 45
CC(C)[C@H](Oc1ccc(Br)cc1I)C(=O)O [Compound A-88, (2S)-2-(4-bromo-2-iodophenoxy)-3-methylbutanoic acid] | 55
CC[C@H](Oc1ccc(Br)cc1I)C(=O)O [Compound A-90, (2S)-2-(4-bromo-2-iodophenoxy)butanoic acid] | 57
